The target of one test is P110β (Homo sapiens, UniProt P42338). The note with it: cited from earlier work.
The test system of test [1] is Class I PI3 kinase isoforms. The conditions noted are these: cited from earlier work.
In a further test the test system is protein kinases. The conditions noted are these: cited from earlier work.
For a further test, the target named is p110δ (Homo sapiens, UniProt O00329). The note with it: cited from earlier work.
The test system of a further test is murine model of asthma. The note with it: ovalbumin-induced airway inflammation; cited from earlier work.
In another test the target is T1, PI3k δ (Homo sapiens, UniProt O00329).
T1 construct: Full length p110 subunits of PI3k α, β and δ; polyHis (N); made in house; host or cells: Sf9 insect cells (baculovirus)
The test can be described thus: biochemical. Type of test: biochemical. The note with it: read-out: PI3k δ Ki. How it is done:
Full length p110 subunits of PI3k α, β and δ, N-terminally labeled with polyHis tag, were coexpressed with p85 with Baculo virus expression vectors in sf9 insect cells. P110/p85 heterodimers were purified by sequential Ni-NTA, Q-HP, Superdex-100 chromatography. Purified α, β and δ isozymes were stored at −20° C. in 20 mM Tris, pH 8, 0.2M NaCl, 50% glycerol, 5 mM DTT, 2 mM Na cholate. […] The γ isozyme was purified by sequential Ni-NTA, Superdex-200, Q-HP chromatography. The γ isozyme was stored frozen at −80° C. in NaH2PO4, pH 8, 0.2M NaCl, 1% ethylene glycol, 2 mM β-mercaptoethanol.
Phospatidyl inositol phosphoacceptor, Ptdlns(4,5)P2 P4508, was from Echelon Biosciences. […] Test compounds were dissolved in dimethyl sulfoxide and diluted with three-fold serial dilutions. The compound in DMSO (1 μL) was added per test well, and the inhibition relative to reactions containing no compound, with and without enzyme was determined. After assay incubation at rt, the reaction was stopped and residual ATP determined by addition of an equal volume of a commercial ATP bioluminescence kit (Perkin Elmer EasyLite) according to the manufacturer's instructions, and detected using a AnalystGT luminometer.

The subject of test [2] is model of systemic lupus erythematosis. The note with it: in vivo; cited from earlier work.
The test system of test [3] is mouse model of rheumatoid arthritis. The note with it: in vivo; cited from earlier work.

pKi: −log10 of the molar value.

These results are taken from US8575183B2, “Heterocyclic compounds and their uses” (priority 2010, dated 2013).

T1 sequence (O00329 whole entry): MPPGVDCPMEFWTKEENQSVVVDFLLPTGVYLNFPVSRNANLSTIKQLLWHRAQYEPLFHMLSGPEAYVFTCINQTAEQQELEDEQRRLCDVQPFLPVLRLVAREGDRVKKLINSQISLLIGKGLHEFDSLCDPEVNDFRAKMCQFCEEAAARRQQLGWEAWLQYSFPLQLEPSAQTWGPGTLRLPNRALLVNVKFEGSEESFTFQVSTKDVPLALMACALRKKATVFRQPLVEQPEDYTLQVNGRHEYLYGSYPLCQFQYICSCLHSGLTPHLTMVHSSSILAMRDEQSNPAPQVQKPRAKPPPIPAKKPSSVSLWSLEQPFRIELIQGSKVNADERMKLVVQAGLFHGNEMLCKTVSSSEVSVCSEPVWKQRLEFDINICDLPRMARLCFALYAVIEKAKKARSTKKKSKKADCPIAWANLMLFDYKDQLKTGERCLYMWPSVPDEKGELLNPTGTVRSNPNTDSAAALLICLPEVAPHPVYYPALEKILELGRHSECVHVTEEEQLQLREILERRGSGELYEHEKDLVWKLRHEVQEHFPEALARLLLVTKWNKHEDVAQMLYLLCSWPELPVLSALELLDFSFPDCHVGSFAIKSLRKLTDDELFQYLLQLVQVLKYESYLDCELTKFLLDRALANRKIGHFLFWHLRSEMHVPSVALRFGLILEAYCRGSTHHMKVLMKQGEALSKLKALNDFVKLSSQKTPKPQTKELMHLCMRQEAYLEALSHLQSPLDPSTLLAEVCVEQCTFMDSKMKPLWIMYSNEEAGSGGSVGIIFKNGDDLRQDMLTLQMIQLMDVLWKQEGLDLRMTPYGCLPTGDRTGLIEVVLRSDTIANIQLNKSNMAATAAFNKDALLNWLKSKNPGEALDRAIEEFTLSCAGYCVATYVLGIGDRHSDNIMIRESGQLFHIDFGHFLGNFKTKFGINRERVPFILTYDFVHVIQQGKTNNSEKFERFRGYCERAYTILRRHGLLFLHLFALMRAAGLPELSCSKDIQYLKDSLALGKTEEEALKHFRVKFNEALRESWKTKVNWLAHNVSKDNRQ
T1 sequence (P27986 whole entry partner): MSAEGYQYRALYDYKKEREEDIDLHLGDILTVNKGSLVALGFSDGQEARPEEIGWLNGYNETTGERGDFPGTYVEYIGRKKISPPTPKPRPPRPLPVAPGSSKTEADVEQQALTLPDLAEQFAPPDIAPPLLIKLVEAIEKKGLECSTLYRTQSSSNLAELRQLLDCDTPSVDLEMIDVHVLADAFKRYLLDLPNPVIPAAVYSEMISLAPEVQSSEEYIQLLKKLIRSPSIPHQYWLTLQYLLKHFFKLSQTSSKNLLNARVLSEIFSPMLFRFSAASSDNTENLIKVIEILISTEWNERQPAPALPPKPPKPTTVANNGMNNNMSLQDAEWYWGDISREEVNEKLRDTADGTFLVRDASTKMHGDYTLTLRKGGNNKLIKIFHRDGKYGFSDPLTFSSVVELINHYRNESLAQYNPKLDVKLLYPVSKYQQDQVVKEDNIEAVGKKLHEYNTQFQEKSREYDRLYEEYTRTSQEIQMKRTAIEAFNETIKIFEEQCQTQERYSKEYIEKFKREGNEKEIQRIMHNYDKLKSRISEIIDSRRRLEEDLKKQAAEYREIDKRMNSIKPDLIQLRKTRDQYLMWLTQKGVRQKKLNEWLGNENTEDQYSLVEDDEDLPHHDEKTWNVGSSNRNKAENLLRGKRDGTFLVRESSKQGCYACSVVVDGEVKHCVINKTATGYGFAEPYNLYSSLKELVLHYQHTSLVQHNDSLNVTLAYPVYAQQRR
Sequence of p110δ (O00329 whole entry): as the sequence (O00329 whole entry) above
Sequence of p110δ (P27986 whole entry partner): as the sequence (P27986 whole entry partner) above
Sequence of P110β (P42338 whole entry, canonical isoform): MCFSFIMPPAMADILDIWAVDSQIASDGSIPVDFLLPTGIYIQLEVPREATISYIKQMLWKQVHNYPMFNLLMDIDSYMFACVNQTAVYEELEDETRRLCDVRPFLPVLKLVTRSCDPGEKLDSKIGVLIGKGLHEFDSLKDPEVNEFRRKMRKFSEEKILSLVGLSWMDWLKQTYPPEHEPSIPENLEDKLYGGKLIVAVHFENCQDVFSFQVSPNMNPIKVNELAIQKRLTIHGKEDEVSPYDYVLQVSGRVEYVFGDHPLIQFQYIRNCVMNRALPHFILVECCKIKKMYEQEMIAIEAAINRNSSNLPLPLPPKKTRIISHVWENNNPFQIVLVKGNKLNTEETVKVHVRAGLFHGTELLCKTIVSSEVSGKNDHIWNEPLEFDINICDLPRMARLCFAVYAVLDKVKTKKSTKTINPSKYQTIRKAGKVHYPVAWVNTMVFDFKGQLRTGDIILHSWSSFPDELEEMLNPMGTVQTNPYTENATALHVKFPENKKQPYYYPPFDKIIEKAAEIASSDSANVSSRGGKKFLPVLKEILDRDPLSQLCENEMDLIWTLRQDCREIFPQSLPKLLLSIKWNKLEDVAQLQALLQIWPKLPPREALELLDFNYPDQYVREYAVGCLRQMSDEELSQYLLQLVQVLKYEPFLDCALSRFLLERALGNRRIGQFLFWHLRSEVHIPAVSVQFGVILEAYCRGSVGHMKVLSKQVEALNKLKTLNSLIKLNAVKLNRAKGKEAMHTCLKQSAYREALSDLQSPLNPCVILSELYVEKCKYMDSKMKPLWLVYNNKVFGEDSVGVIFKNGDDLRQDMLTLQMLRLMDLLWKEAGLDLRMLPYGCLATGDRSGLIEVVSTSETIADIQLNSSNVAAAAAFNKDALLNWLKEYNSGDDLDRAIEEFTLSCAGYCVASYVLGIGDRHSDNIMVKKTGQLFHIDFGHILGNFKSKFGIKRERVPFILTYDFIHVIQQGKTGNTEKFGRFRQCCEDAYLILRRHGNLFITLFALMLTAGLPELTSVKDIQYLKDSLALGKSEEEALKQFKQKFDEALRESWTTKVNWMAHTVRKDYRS
Sequence of P110β (P27986 whole entry partner, canonical isoform): as the sequence (P27986 whole entry partner) above

Regarding `Cc1cc(C(C)Nc2ccccc2)c2nc(N3CCOCC3)cc(=O)n2c1` (stereo not drawn) [TGX-221], at P110β, the potency on beta is 7 nM. Moreover, the selectivity over delta in test [1] (beta over delta) was 14 fold. The “selectivity over gamma and alpha” value in test [1] (beta over gamma and alpha) is “more than 500 fold”. Take `Cc1ccccc1-n1c(Cn2cnc3c(N)ncnc32)nc2cccc(C)c2c1=O` [IC87114]: in the test on protein kinases, the “activity against any protein kinases tested” value is on record as “no activity”. Besides, on p110δ, the “inhibition of p110δ” value is reported as “high nanomolar range (triple digit)”. The “inflammation and disease in a murine model of asthma” value in the test with murine model of asthma is “significantly ameliorate inflammation and disease”. The term pKi denotes the Ki on a negative log10 scale, so that one unit is a factor of ten. `CC[C@H](Nc1ncnc(N)c1C#N)c1nc2cccc(C(=O)NC)c2n1C1CC1` [2-((1S)-1-((6-amino-5-cyano-4-pyrimidinyl)amino)propyl)-1-cyclopropyl-N-methyl-1H-benzimidazole-7-carboxamide]: on PI3k δ, the negative-log Ki (pKi) is 7.41. Take `C[C@H](Nc1ncnc(N)c1C#N)c1nc2c(S(C)(=O)=O)cccc2n1C1CCCC1` [4-amino-6-(((1S)-1-(1-cyclopentyl-4-(methylsulfonyl)-1H-benzimidazol-2-yl)ethyl)amino)-5-pyrimidinecarbonitrile]: the pKi at PI3k δ was 5.84.

`C[C@H](Nc1ncnc(N)c1C#N)c1nc2ccccn2c1-c1ccc(Cl)cc1` [4-amino-6-(((1S)-1-(3-(4-chlorophenyl)imidazo[1,2-a]pyridin-2-yl)ethyl)amino)-5-pyrimidinecarbonitrile]: the pKi at PI3k δ was 7.13. On the same count and under the same terms, with `C[C@@H](Nc1ncnc(N)c1C#N)c1nc2c(F)cc(F)cc2n1-c1cc(F)cc(F)c1` [4-amino-6-(((1R)-1-(1-(3,5-difluorophenyl)-4,6-difluoro-1H-benzimidazol-2-yl)ethyl)amino)-5-pyrimidinecarbonitrile] the figure was 6.60; with `CC[C@H](Nc1ncnc(N)c1C#N)c1nc2cccc(S(C)(=O)=O)c2n1Cc1ccc(F)cc1` [4-amino-6-(((1S)-1-(1-(4-fluorobenzyl)-7-(methylsulfonyl)-1H-benzimidazol-2-yl)propyl)amino)-5-pyrimidinecarbonitrile], 7.56; with `CC[C@H](Nc1ncnc(N)c1C#N)c1nc2cccc(S(C)(=O)=O)c2n1CC1CC1` [4-amino-6-(((1S)-1-(1-(cyclopropylmethyl)-7-(methylsulfonyl)-1H-benzimidazol-2-yl)propyl)amino)-5-pyrimidinecarbonitrile], 8.66. As to `O=C1NC(=O)/C(=C\c2ccc3nccnc3c2)S1` [AS 605240], in test [2], the “onset of disease in a model of systemic lupus erythematosis” value is “delay onset of disease”. Further, the “efficacy in a mouse model of rheumatoid arthritis” value in test [3] is “efficacious”.

`C[C@H](Nc1ncnc(N)c1C#N)c1nc2ncccn2c1-c1ccccn1` [4-amino-6-(((1S)-1-(3-(2-pyridinyl)imidazo[1,2-a]pyrimidin-2-yl)ethyl)amino)-5-pyrimidinecarbonitrile]: the pKi at PI3k δ is 5.80. Same read-out and setting: in the case of `C[C@@H](Nc1ncnc(N)c1C#N)c1nc2ccc(F)cc2n1-c1cccc(C#N)c1` [4-amino-6-(((1R)-1-(1-(3-cyanophenyl)-6-fluoro-1H-benzimidazol-2-yl)ethyl)amino)-5-pyrimidinecarbonitrile] it was 6.39; in that of `CC[C@H](Nc1ncnc(N)c1C#N)c1nc2cccc(C(F)(F)F)c2n1Cc1ccc(F)cc1` [4-amino-6-(((1S)-1-(1-(4-fluorobenzyl)-7-(trifluoromethyl)-1H-benzimidazol-2-yl)propyl)amino)-5-pyrimidinecarbonitrile], 6.33. With `C[C@H](Nc1ncnc(N)c1C#N)c1nc2cccc(C(=O)NC3CCCC3)c2n1C1CC1` [2-((1S)-1-((6-amino-5-cyano-4-pyrimidinyl)amino)ethyl)-N-cyclopentyl-1-cyclopropyl-1H-benzimidazole-7-carboxamide], at PI3k δ, the pKi is 7.74. Still for that read-out and setting: with `COC(=O)c1cccc2nc([C@H](C)Nc3ncnc(N)c3C#N)c(-c3ccccc3)n12` [methyl 2-((1S)-1-((6-amino-5-cyano-4-pyrimidinyl)amino)ethyl)-3-phenylimidazo[1,2-a]pyridine-5-carboxylate] the figure was 7.41. Turning to `C[C@H](Nc1ncnc(N)c1C#N)c1nc2cccc(C(=O)NC3CC3)c2n1C1CC1` [2-((1S)-1-((6-amino-5-cyano-4-pyrimidinyl)amino)ethyl)-N,1-dicyclopropyl-1H-benzimidazole-7-carboxamide], the pKi at PI3k δ is 7.76. As to `C[C@H](Nc1ncnc2[nH]cnc12)c1nc2ccc(F)cc2n1-c1cncc(F)c1` [N-((1S)-1-(6-fluoro-1-(5-fluoro-3-pyridinyl)-1H-benzimidazol-2-yl)ethyl)-9H-purin-6-amine], the pKi at PI3k δ was 8.42. `C[C@H](Nc1ncnc(N)c1C#N)c1nc2cc(F)ccc2n1-c1cncc(F)c1` [4-amino-6-(((1S)-1-(5-fluoro-1-(5-fluoro-3-pyridinyl)-1H-benzimidazol-2-yl)ethyl)amino)-5-pyrimidinecarbonitrile]: at PI3k δ, the pKi was 7.02. On the same count and under the same terms, in the case of `CNC(=O)c1cccc(-n2c([C@H](C)Nc3ncnc(N)c3C#N)nc3ccc(F)cc32)c1` [3-(2-((1S)-1-((6-amino-5-cyano-4-pyrimidinyl)amino)ethyl)-6-fluoro-1H-benzimidazol-1-yl)-N-methylbenzamide] it was 7.74; in that of `C[C@H](Nc1ncnc(N)c1C#N)c1nc2cccc(C(=O)N3CCN(C)CC3)n2c1-c1ccccc1` [4-amino-6-(((1S)-1-(5-((4-methyl-1-piperazinyl)carbonyl)-3-phenylimidazo[1,2-a]pyridin-2-yl)ethyl)amino)-5-pyrimidinecarbonitrile], 7.93.
